{
  "source": "patent US9006139B2",
  "about": "“Active compound combinations” (Bayer Intellectual Property GmbH, priority 2009, dated 2015)",
  "assay_type_in_all_cases": "in vivo",
  "key": {"Sphaerotheca fuliginea": {"tested_on": "Sphaerotheca fuliginea", "assay": "Sphaerotheca test (cucumbers)/protective", "conditions": "Podosphaera fuliginea, 168 h, Table C, read-out: Efficacy in % found; for pest or weed control at 50 ppm: 50 ppm a.i.; for pest or weed control at 200 ppm: 200 ppm a.i.; for pest or weed control at 100 ppm: 100 ppm a.i.", "in_short": "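Young cucumber plants sprayed protectively with compound in acetone/dimethylacetamide with emulsifier, water-diluted, at the stated rate. After drying, plants inoculated with Sphaerotheca fuliginea spores and kept at ~23° C and ~70% RH. Efficacy scored at 7 days: 0% = untreated control, 100% = no disease.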"}, "[1]": {"tested_on": "Blumeria graminis fsp. tritici", "assay": "Blumeria test (wheat)/preventive", "conditions": "Table G; 500 ppm a.i.", "description": "(§1) Solvent: 49 parts by weight of n,n-dimethylacetamid\n(§2) Emulsifier: 1 part by weight of alkylaryl polyglycol ether\nTo produce a suitable preparation of active compound, 1 part by weight of active compound or active compound combination is mixed with the stated amounts of solvent and emulsifier, and the concentrate is diluted with water to the desired concentration. To test for preventive activity, young plants are sprayed with the preparation of active compound or active compound combination at the stated rate of application. After the spray coating has been dried, the plants are dusted with spores of Blumeria graminis fsp. tritici. The plants are placed in the greenhouse at a temperature of approximately 18° C. and a relative atmospheric humidity of approximately 80% to promote the development of mildew pustules. The test is evaluated 7 days after the inoculation. 0% means an efficacy which corresponds to that of the untreated control, while an efficacy of 100% means that no disease is observed."}, "Septoria tritici": {"tested_on": "Septoria tritici", "assay": "Septoria tritici-test (wheat)/preventive", "conditions": "Table H", "description": "as §1, §2\nTo produce a suitable preparation of active compound, 1 part by weight of active compound or active compound combination is mixed with the stated amounts of solvent and emulsifier, and the concentrate is diluted with water to the desired concentration. To test for preventive activity, young plants are sprayed with the preparation of active compound or active compound combination at the stated rate of application. After the spray coating has been dried, the plants are sprayed with a spore suspension of Septoria tritici. The plants remain for 48 hours in an incubation cabinet at approximately 20° C. and a relative atmospheric humidity of approximately 100% and afterwards for 60 hours at approximately 15° C. in a translucent incubation cabinet at a relative atmospheric humidity of approximately 100%. The plants are placed in the greenhouse at a temperature of approximately 15° C. and a relative atmospheric humidity of approximately 80%. The test is evaluated 21 days after the inoculation. 0% means an efficacy which corresponds to that of the untreated control, while an efficacy of 100% means that no disease is observed."}, "Botrytis cinerea": {"tested_on": "Botrytis cinerea", "assay": "Botrytis test (beans)/protective", "conditions": "Botrytis cinerea, 48 h, Table F, read-out: Efficacy in % found; for pest or weed control at 25 ppm: 25 ppm a.i.; for pest or weed control at 50 ppm: 50 ppm a.i.", "in_short": "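Young bean plants were sprayed with compound in acetone/dimethylacetamide plus emulsifier diluted in water; once dry, each leaf got 2 agar pieces bearing Botrytis cinerea. Plants were held dark at 20 °C and 100% relative humidity, and lesion size was scored after 2 days as efficacy, 0% matching untreated control and 100% meaning no disease.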"}},
  "note": "Where two headings read alike, the source gives them in different places.",
  "data": [
    {"compound": "Cn1c(=O)c2sc3c(=O)n(C)c(=O)c3sc2c1=O", "note": "[(I-1), 2,6-dimethyl-1H,5H-[1,4]dithiino[2,3-c:5,6-c′]dipyrrole-1,3,5,7(2H,6H)-tetrone]", "values": [
      {"measurement": "pest or weed control at 50 ppm", "setting": "Sphaerotheca fuliginea; test 1", "result": 0, "unit": "%"},
      {"measurement": "pest or weed control at 200 ppm", "setting": "Sphaerotheca fuliginea; test 1", "result": 30, "unit": "%"},
      {"measurement": "pest or weed control at 50 ppm", "setting": "Sphaerotheca fuliginea; test 2", "result": 38, "unit": "%"},
      {"measurement": "pest or weed control at 200 ppm", "setting": "Sphaerotheca fuliginea; test 2", "result": 65, "unit": "%"},
      {"measurement": "pest or weed control at 50 ppm", "setting": "Sphaerotheca fuliginea; test 3", "result": 20, "unit": "%"},
      {"measurement": "pest or weed control at 100 ppm", "setting": "Sphaerotheca fuliginea; test 3", "result": 30, "unit": "%"},
      {"measurement": "pest or weed control at 100 ppm", "setting": "Sphaerotheca fuliginea; test 4", "result": 19, "unit": "%"},
      {"measurement": "Efficacy in % found", "setting": "[1]", "result": 75, "unit": "%"},
      {"measurement": "Efficacy in % found", "setting": "Septoria tritici; 500 ppm a.i.", "result": 30, "unit": "%"},
      {"measurement": "Efficacy in % found", "setting": "Septoria tritici; 1000 ppm a.i.", "result": 50, "unit": "%"},
      {"measurement": "pest or weed control at 25 ppm", "setting": "Botrytis cinerea; test 1", "result": 0, "unit": "%"},
      {"measurement": "pest or weed control at 50 ppm", "setting": "Botrytis cinerea; test 1", "result": 45, "unit": "%"},
      {"measurement": "pest or weed control at 25 ppm", "setting": "Botrytis cinerea; test 2", "result": 0, "unit": "%"},
      {"measurement": "pest or weed control at 50 ppm", "setting": "Botrytis cinerea; test 2", "result": 40, "unit": "%"},
      {"measurement": "pest or weed control at 12.5 ppm", "setting": "Botrytis cinerea; test 3, 12.5 ppm a.i.", "result": 0, "unit": "%"},
      {"measurement": "pest or weed control at 50 ppm", "setting": "Botrytis cinerea; test 3", "result": 58, "unit": "%"}
    ]}
  ]
}
